Source: ChEMBL document CHEMBL1137793, “Synthesis and biological activity of analogs of fecapentaene-12” (J Nat Prod, 1987)

Key:
Settings in all cases: salmonella enterica subsp. enterica serovar typhimurium
Salmonella typhimurium [1] = assay: Toxicity in Salmonella Typhimurium TA100 at 10000 ng/plate after 48 hrs by Ames assay; assay type: organism-based
Salmonella typhimurium [2] = assay: Toxicity in Salmonella Typhimurium TA98 at 5000 ng/plate after 48 hrs by Ames assay; assay type: organism-based
Salmonella typhimurium [3] = assay: Toxicity in Salmonella Typhimurium TA100 at 5000 ng/plate after 48 hrs by Ames assay; assay type: organism-based
Salmonella typhimurium [4] = assay: Toxicity in Salmonella Typhimurium TA98 at 10000 ng/plate after 48 hrs by Ames assay; assay type: organism-based
Salmonella typhimurium [5] = assay: Mutagenic activity in Salmonella Typhimurium TA100 assessed as number of revertant colonies at 313 ng/plate after 48 hrs by Ames assay; assay type: toxicity, organism-based
Salmonella typhimurium [6] = assay: Mutagenic activity in Salmonella Typhimurium TA100 assessed as number of revertant colonies at 36 ng/plate after 48 hrs by Ames assay; assay type: toxicity, organism-based
Salmonella typhimurium [7] = assay: Mutagenic activity in Salmonella Typhimurium TA100 assessed as number of revertant colonies at 78 ng/plate after 48 hrs by Ames assay; assay type: toxicity, organism-based
Salmonella typhimurium [8] = assay: Mutagenic activity in Salmonella Typhimurium TA100 assessed as number of revertant colonies at 156 ng/plate after 48 hrs by Ames assay; assay type: toxicity, organism-based
Salmonella typhimurium [9] = assay: Toxicity in Salmonella Typhimurium TA100 at 2500 ng/plate after 48 hrs by Ames assay; assay type: organism-based
Salmonella typhimurium [10] = assay: Mutagenic activity in Salmonella Typhimurium TA100 assessed as number of revertant colonies at 25000 ng/plate after 48 hrs by Ames assay; assay type: toxicity, organism-based
Salmonella typhimurium [11] = assay: Mutagenic activity in Salmonella Typhimurium TA98 assessed as number of revertant colonies at 50000 ng/plate after 48 hrs by Ames assay; assay type: toxicity, organism-based
Salmonella typhimurium [12] = assay: Mutagenic activity in Salmonella Typhimurium TA100 assessed as number of revertant colonies at 100000 ng/plate after 48 hrs by Ames assay; assay type: toxicity, organism-based
Salmonella typhimurium [13] = assay: Mutagenic activity in aldehyde-sensitive Salmonella Typhimurium TA104 assessed as number of revertant colonies at 50000 ng/plate after 48 hrs by Ames assay; assay type: toxicity, organism-based
Salmonella typhimurium [14] = assay: Mutagenic activity in Salmonella Typhimurium TA98 assessed as number of revertant colonies at 100000 ng/plate after 48 hrs by Ames assay; assay type: toxicity, organism-based
Salmonella typhimurium [15] = assay: Mutagenic activity in aldehyde-sensitive Salmonella Typhimurium TA104 assessed as number of revertant colonies at 25000 ng/plate after 48 hrs by Ames assay; assay type: toxicity, organism-based
Salmonella typhimurium [16] = assay: Mutagenic activity in Salmonella Typhimurium TA100 assessed as number of revertant colonies at 50000 ng/plate after 48 hrs by Ames assay; assay type: toxicity, organism-based
Salmonella typhimurium [17] = assay: Mutagenic activity in aldehyde-sensitive Salmonella Typhimurium TA104 assessed as number of revertant colonies at 100000 ng/plate after 48 hrs by Ames assay; assay type: toxicity, organism-based
Salmonella typhimurium [18] = assay: Toxicity in aldehyde-sensitive Salmonella Typhimurium TA104 at 2500 ng/plate after 48 hrs by Ames assay; assay type: organism-based
Salmonella typhimurium [19] = assay: Toxicity in aldehyde-sensitive Salmonella Typhimurium TA104 at 5000 ng/plate after 48 hrs by Ames assay; assay type: organism-based
Salmonella typhimurium [20] = assay: Toxicity in aldehyde-sensitive Salmonella Typhimurium TA104 at 10000 ng/plate after 48 hrs by Ames assay; assay type: organism-based

| SMILES | Activity (Salmonella typhimurium [1]) | Activity (Salmonella typhimurium [2]) | Activity (Salmonella typhimurium [3]) | Activity (Salmonella typhimurium [4]) | Activity (Salmonella typhimurium [5]) | Activity (Salmonella typhimurium [6]) | Activity (Salmonella typhimurium [7]) | Activity (Salmonella typhimurium [8]) | Activity (Salmonella typhimurium [9]) | Activity (Salmonella typhimurium [10]) | Activity (Salmonella typhimurium [11]) | Activity (Salmonella typhimurium [12]) | Activity (Salmonella typhimurium [13]) | Activity (Salmonella typhimurium [14]) | Activity (Salmonella typhimurium [15]) | Activity (Salmonella typhimurium [16]) | Activity (Salmonella typhimurium [17]) | Activity (Salmonella typhimurium [18]) | Activity (Salmonella typhimurium [19]) | Activity (Salmonella typhimurium [20]) |
| --- | --- | --- | --- | --- | --- | --- | --- | --- | --- | --- | --- | --- | --- | --- | --- | --- | --- | --- | --- | --- |
| CC/C=C/C=C/C=C/C=C/C=C/OC[C@@H](O)CO | Toxic | Toxic | Toxic | Toxic | 612 | 187 | 306 | 459 | Toxic |  |  |  |  |  |  |  |  |  |  |  |
| CC/C=C/C=C/C=C/C=C/C=O |  |  |  |  |  |  |  |  |  | 185 | 24 | 221 | 186 | 23 | 165 | 187 | 181 |  |  |  |
| CC/C=C/C=C/C=C/C=C/C=C/OCC(O)CO (racemic) | Toxic | Toxic | Toxic | Toxic | 799 | 184 | 204 | 561 | Toxic |  |  |  |  |  |  |  |  | Toxic | Toxic | Toxic |
